One test concerns the target PacA(ECA_RS10935)-LBD (Pectobacterium atrosepticum, UniProt Q6D515). Kind of test: Isothermal titration calorimetry of PacA-LBD with ligands. It is filed as binding, P. atrosepticum SCRI1043. The following applies: ITC, 25°C, pH 7.0.
For test [1], the system named is P. aeruginosa PAO1. Description: Growth experiments with Biolog compound array PM2A. It is filed as cell-based, Pseudomonas aeruginosa. The following applies: M9 minimal medium, 96-well plate, 48 h, 37°C. Here is the method: PAO1 was grown overnight in M9 minimal medium containing 10 mM glucose. Cultures were washed twice and then diluted to an OD600 of 0.02 in either M9 or M8 medium (M9 minimal medium without NH4Cl) containing 10 mM glucose and medium supplemented with each of the compounds present in the Biolog compound array PM2A (https://www.biolog.com/wp-content/uploads/2020/04/00A-042-Rev-C-Phenotype-MicroArrays-1-10-Plate-Maps.pdf) as sole carbon source. Then, 200 μL of these cultures were transferred into microwell plates, and growth at 37°C was followed on a Bioscreen microbiological growth analyzer (Oy Growth Curves Ab Ltd., Helsinki, Finland).

Test [2] has as its system P. aeruginosa PAO1. It is filed as cell-based, Pseudomonas aeruginosa. The following applies: capillary assay; for concentration of maximal chemotaxis response / response threshold of chemotaxis: 30 min; for maximal accumulation: at 10 μM. Here is the method:
(§1) Overnight cultures in M9 minimal medium supplemented with 6 mg/L Fe-citrate, trace elements ([89]), and 15 mM glucose were used to inoculate fresh medium to an OD660 of 0.05. Cells were cultured at 30°C (Pectobacterium atrosepticum, Pantoea agglomerans, Serratia plymuthica, Pseudomonas stutzeri, Agrobacterium tumefaciens, Dickeya solani, Pseudomonas savastanoi pv. savastanoi) or 37°C (P. aeruginosa, E. coli, Salmonella enterica serovar Typhimurium) to an OD660 of 0.4 to 0.5. Subsequently, cells were washed twice by centrifugation (1,667 × g for 5 min at room temperature) and resuspension in chemotaxis buffer (50 mM KH2PO4/K2HPO4, […], 0.05% [vol/vol] glycerol, pH 7.0) and then resuspended in the same buffer at an OD660 of 0.1. Aliquots (230 μL) of the resulting cell suspension were placed into the wells of 96-well microtiter plates. Then, 1-μL capillaries (Microcaps, Drummond Scientific) were heat-sealed at one end and filled with buffer (control) or chemoeffector solution prepared in chemotaxis buffer. The capillaries were rinsed with sterile water and immersed into the bacterial suspensions at their open ends. After 30 min, capillaries were removed from the wells, rinsed with sterile water, and emptied into 1 mL of chemotaxis buffer. Serial dilutions were plated onto M9 minimal medium plates supplemented with 20 mM glucose, incubated at 30°C or 37°C prior to colony counting. Data were corrected with the number of cells that swam into buffer containing capillaries. Data are the means and standard deviations of three biological replicates conducted in triplicate.

For another test, the target named is PctD-Tar hybrid (Pseudomonas aeruginosa, UniProt Q9HVF8). Description: cell-based.
PctD-Tar hybrid, sequence (Q9HVF8 entry or part of it): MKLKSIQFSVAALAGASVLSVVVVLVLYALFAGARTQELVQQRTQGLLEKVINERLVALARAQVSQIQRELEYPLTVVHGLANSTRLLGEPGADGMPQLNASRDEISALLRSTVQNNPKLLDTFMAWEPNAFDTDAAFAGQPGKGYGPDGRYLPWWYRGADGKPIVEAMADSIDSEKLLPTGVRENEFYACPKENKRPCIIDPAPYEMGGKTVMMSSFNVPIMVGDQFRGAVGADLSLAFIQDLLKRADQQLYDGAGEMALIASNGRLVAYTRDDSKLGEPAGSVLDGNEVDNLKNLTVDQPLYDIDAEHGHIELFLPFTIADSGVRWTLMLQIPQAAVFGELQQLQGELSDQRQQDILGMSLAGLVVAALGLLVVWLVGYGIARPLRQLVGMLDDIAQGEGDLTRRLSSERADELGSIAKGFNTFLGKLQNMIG
PctD-Tar hybrid, sequence (P07017 267-553, further chain): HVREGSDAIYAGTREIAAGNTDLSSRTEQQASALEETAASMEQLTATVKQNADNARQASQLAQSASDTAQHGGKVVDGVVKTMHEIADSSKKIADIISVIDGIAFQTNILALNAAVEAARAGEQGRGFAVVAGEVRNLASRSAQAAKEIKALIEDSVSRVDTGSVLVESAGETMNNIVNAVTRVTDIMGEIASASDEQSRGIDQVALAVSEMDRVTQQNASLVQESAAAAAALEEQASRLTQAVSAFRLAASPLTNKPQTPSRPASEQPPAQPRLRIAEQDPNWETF
The test system of another test is P. atrosepticum SCRI1043. Description: Capillary chemotaxis assay. The following applies: 1 mM chemoeffector. Type of test: cell-based, Pectobacterium atrosepticum. Here is the method:
as §1

The target of another test is PctD(PA4633)-LBD (Pseudomonas aeruginosa, UniProt Q9HVF8). Description: biochemical. The following applies: for KD / ΔH: ITC, 25°C, pH 7.5. The procedure:
Measurements were made using a VP-ITC microcalorimeter (MicroCal, Inc., Northampton, MA) at 25°C. […] The mean enthalpies from the injection of ligands into the buffer were subtracted from raw data prior to data fitting using the “one binding site model” of the MicroCal version of the ORIGIN software.

Another test has as its target BmrR. Also on record: method as in PMID 21690368. The following applies: cited from earlier work.
The test system of another test is Dickeya solani MK10. Kind of test: Capillary chemotaxis assay. It is filed as cell-based. The following applies: 1 mM acetylcholine. The procedure:
as §1, with “Data were corrected with the number of cells that swam into buffer containing capillaries. Data are the means and standard deviations of three biological replicates conducted in triplicate.” left out

The test system of test [3] is Agrobacterium tumefaciens C58. Description: Capillary chemotaxis assay. The following applies: 1 mM acetylcholine. It is filed as cell-based. The procedure: as §1, with “Data were corrected with the number of cells that swam into buffer containing capillaries. Data are the means and standard deviations of three biological replicates conducted in triplicate.” left out

Test [4] has as its system E. coli strain UU1250 expressing PctD-Tar. Type of test: cell-based. The procedure: The microfluidic assay was performed as previously described, using a chip with 24 parallel microchannels ([105]). […]. Cells were harvested by centrifugation and washed twice with tethering buffer. Chemoeffectors were dissolved in tethering buffer at a concentration of 50 mM, and the pH was adjusted to 7.0. The chemical source microchannels were filled with 4% (wt/vol) agarose gel to create a semipermeable barrier. E. coli cells were added to the reservoir well and allowed to spread for 30 min into the channels. Compounds were added to the source well and allowed to form a concentration gradient. Cell fluorescence was recorded with a Ti-E inverted microscope system (Nikon Instruments Europe BV, Amsterdam, Netherlands) using a 20×lens objective. Data were analyzed using ImageJ (Wayne Rasband, NIH, USA).

The subject of the next test is P. aeruginosa. Particulars: cited from earlier work.
The next test has as its target TlpQ. The following applies: cited from earlier work.

Several values for one entry are separate records, joined by “and”; a condition that tells them apart may be missing. Equal entries are not always repeated. Entries after “also recorded” stand apart in the source; their conditions may differ. Where two headings read alike, the source gives them in different places.

PacA(ECA_RS10935)-LBD, sequence (Q6D515 entry or part of it): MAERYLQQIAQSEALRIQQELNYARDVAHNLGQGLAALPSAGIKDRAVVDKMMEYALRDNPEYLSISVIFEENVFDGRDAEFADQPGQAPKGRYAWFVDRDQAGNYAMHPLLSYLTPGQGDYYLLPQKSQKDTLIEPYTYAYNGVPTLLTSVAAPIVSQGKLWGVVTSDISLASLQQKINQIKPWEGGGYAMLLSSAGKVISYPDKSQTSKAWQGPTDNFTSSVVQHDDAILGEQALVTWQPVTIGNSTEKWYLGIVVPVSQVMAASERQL
PctD(PA4633)-LBD, sequence (Q9HVF8 entry or part of it): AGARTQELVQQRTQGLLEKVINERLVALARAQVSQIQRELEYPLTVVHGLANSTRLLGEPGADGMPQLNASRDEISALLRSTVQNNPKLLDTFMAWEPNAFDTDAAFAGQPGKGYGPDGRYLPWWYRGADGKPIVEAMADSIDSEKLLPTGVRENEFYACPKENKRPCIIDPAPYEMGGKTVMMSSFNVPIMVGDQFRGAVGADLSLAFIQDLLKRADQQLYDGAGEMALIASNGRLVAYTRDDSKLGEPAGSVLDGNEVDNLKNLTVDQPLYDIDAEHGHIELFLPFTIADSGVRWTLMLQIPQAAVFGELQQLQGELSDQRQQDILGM
Procedure for PacA(ECA_RS10935)-LBD: Measurements were made using a VP-ITC microcalorimeter (MicroCal, Inc., Northampton, MA) at 25°C. PA4633-LBD was dialyzed into 5 mM Tris, 5 mM PIPES [piperazine-N,N′-bis(2-ethanesulfonic acid)], 5 mM MES (morpholineethanesulfonic acid), 150 mM NaCl, 10% (vol/vol) glycerol, pH 7.5, whereas ECA_RS10935-LBD was dialyzed into 40 mM KH2PO4/K2HPO4, 10% (vol/vol) glycerol, pH 7.0. Proteins at 15 to 22 μM were placed into the sample cell and titrated with 9.6-μL aliquots of 0.5 to 10 mM ligand solutions made up in dialysis buffer. […] The mean enthalpies from the injection of ligands into the buffer were subtracted from raw data prior to data fitting using the “one binding site model” of the MicroCal version of the ORIGIN software.

Take `C[N+](C)(C)C[C@H](O)CC(=O)[O-]` [L-carnitine]: on PacA(ECA_RS10935)-LBD, binding was put at a Kd of 20 ± 2 µM and the ΔH is -4.9 ± 0.4 kcal/mol. In addition, the “growth as carbon source” value in the test with P. aeruginosa PAO1 [1] is reported as “significant growth”. Further, in the test with P. aeruginosa PAO1 [2], the “chemoattraction” value is recorded as “chemoattraction”, the “concentration of maximal chemotaxis response” value turned out to be 10000 µM and the “response threshold of chemotaxis” value came out at 100 µM. The half-maximal effective concentration (EC50) at PctD-Tar hybrid amounted to 31 ± 6 µM. Further, the chemotaxis response result with P. atrosepticum SCRI1043 is given as “low but reproducible chemotaxis”. At PctD(PA4633)-LBD, the KD result is listed as “No response; also recorded: could not be visualized; also recorded: No binding” and the ΔH entry was “No binding”.

With `CC(=O)OCC[N+](C)(C)C` [acetylcholine], on PacA(ECA_RS10935)-LBD, the KD result is “fails to recognize; also recorded: absence of binding” and the ΔH entry is on record as “No binding”. The KD entry on PacA(ECA_RS10935)-LBD (listed as Acetylcholine) is “No binding”. For the same molecule, the dissociation constant (Kd) on BmrR is 6.6 µM. For the same molecule, the magnitude of chemotaxis entry with Dickeya solani MK10 is reported as “about a third of that observed in P. aeruginosa”. The magnitude of chemotaxis entry in [3] is recorded as “comparable to that in P. aeruginosa”. In test [4] (50 mM in source channel), the “chemoattraction in microfluidic assay” value is recorded as “much stronger chemoattraction”. Moreover, in the test on P. aeruginosa PAO1 [2], the “concentration of maximal chemotaxis response” value was determined as 10 µM, the “response threshold of chemotaxis” value turned out to be 1 µM and the maximal accumulation is ~300,000 bacteria per capillary. In addition, the chemotaxis response result in the test with P. atrosepticum SCRI1043 is listed as “failed to respond”. Besides, the ΔH on PctD(PA4633)-LBD was -12.2 ± 1.0 kcal/mol.

For `C[N+](C)(C)CC(=O)O` [betaine], on PacA(ECA_RS10935)-LBD, binding was characterised by a dissociation constant (Kd) of 7.5 ± 0.1 µM and the ΔH is -16.1 ± 0.1 kcal/mol. Besides, the “chemoattraction” value in the test with P. aeruginosa PAO1 [2] is “comparable to that of L-carnitine”. For the same molecule, the EC50 on PctD-Tar hybrid turned out to be 150 ± 25 µM. The chemotaxis response entry with P. atrosepticum SCRI1043 is on record as “low but reproducible chemotaxis”. At PctD(PA4633)-LBD, binding was characterised by a dissociation constant (Kd) of 990 ± 59 µM, the KD result is “low affinity” and the ΔH was -2.4 ± 4.1 kcal/mol.

On PacA(ECA_RS10935)-LBD, `C[N+](C)(C)CCO` [choline] registered a Kd of 113 ± 16.4 µM and a ΔH of -2.1 ± 0.2 kcal/mol. Moreover, in test [4], the “chemoattraction in microfluidic assay” value is on record as “much stronger chemoattraction”. In the test with P. aeruginosa PAO1 [2], the “concentration of maximal chemotaxis response” value stood at 10 µM, the “response threshold of chemotaxis” value is 0.1 µM and the maximal accumulation is on record as ~300,000 bacteria per capillary. On PctD-Tar hybrid, the response was half-maximal at 0.04 ± 0.01 µM (EC50). The chemotaxis response result in the test on P. atrosepticum SCRI1043 is “low but reproducible chemotaxis”. Moreover, at PctD(PA4633)-LBD, the dissociation constant (Kd) stood at 2.6 ± 0.1 µM and the ΔH is -20.3 ± 0.3 kcal/mol.

On to `NCCc1c[nH]cn1` [histamine], for which the “lowest concentration giving attraction” value with P. aeruginosa is given as 500 nM. Further, the Kd at TlpQ is 0.64 µM and 1.2 µM.

These data come from article PMC9040839 (mBio, 2022).
